For assay [1], the system named is antibodies to HIV-1. Put plainly: EIA of p24 synthetic peptide-BSA conjugates with serum pools and individual sera. The assay is classed as binding, human. As for the experimental part: (§1) The free peptides or peptide-protein conjugates of FIGS. 1-13 were initially screened for immunoreactivity by coating each well of polystyrene microtiter EIA plates (Costar, Cambridge, Mass., U.S.A.) with 0.2 ml amounts of concentrations of 5-50 micrograms/ml peptide in Tris buffer, 10 mM, pH 8.0, at 4° C. overnight. Peptides or peptide-protein conjugates showing immunoreactivity by EIA were then further diluted for coating to determine the minimal concentrations required that allowed maximal immunoreactivity with antibodies to HIV, and minimal nonspecific reactivity with normal sera. The EIA tests were performed as follows: The coating solution was removed from each well and the wells were blocked at 37° C. for 30 minutes with a solution of 50 mM phosphate, 100 mM NaCl, pH 7.4, 1% BSA, 0.5% gelatin. The wells were then aspirated dry with a microtiter plate washer and washed 3 times with a solution of 50 mM phosphate, 100 mM NaCl, 0.05% Tween 20, pH 7.4 (PBST). A 1:101 dilution (in PBST with 1% BSA, 1% NRS) of the primate serum to be tested was then added as 0.2 ml to each washed well and the plates were incubated at 37° C. for 30 minutes. The plates were then washed×3 with PBST, and 0.2 ml amounts of a 1:2000 dilution of goat anti-human (GAH) peroxidase enzyme conjugate (Organon Teknika, Cappel, Melvern, Pa., U.S.A.) that recognized human IgG, IgA, and IgM were added to each well, and the plates were incubated for 30 minutes at 37° C. The plates were then washed×3 with PBST and incubated with 0.2 ml/well substrate consisting of 0.1M citric acid pH 5.2, 0.1 mg/ml o-phenylene diamine, 0.01% H2 O2, at room temperature in the dark for 10 minutes. Reactions were stopped with 50 microliters of 4N H2 SO4, and the color development was quantitated in a Multiscan plate reader at A492. In each series of experiments positive and negative controls were included, and all tests were done in duplicate or quadruplicate. Most peptides and peptide conjugates were initially screened against a 1:101 dilution of pools of HIV positive or HIV negative sera, and the same serum pool was used to allow quantitative comparison of immunoreactivity of different free peptides or peptide-protein conjugates.
FIG. 8 illustrates the immunoreactivity and AA sequences of synthetic peptides of the p24 protein of HIV-1, when conjugated to BSA via their C-termini using SMCC, and reacted with a pool of approximately 50 sera from persons containing antibody to HIV-1, or with a pool of approximately 30 sera from individuals devoid of antibody to HIV-1. […] No negative sera (0/85, 0%) reacted, and 17 positive sera (17/98, 17%) were immunoreactive. It has been reported that individuals lose antibodies to p24 during the course of progression from asymptomatic infection to clinical disease and AIDS (Franchini et al., Blood 69:(2):437-441, 1987, and Weber et al., Lancet i:119-122, 1987), which may explain the lower frequency of antibodies to this peptide in the sera tested.

In assay [2] the test system is antibodies to HIV-1. Put plainly: EIA of peptide-protein conjugates coated on polystyrene microtiter plates, human sera. The assay is classed as binding. The note with it: for immunoreactivity with HIV-1 antibodies (FIG. 1): C-terminal BSA-SMCC conjugates, 10 micrograms peptide/ml coating, 1:101 dilution of pooled HIV+ / HIV- sera. As for the experimental part:
as §1
(§2) The peptides in FIGS. 1 and 5 were synthesized as described in Example 1 and conjugated to KLH or BSA as described in Example 2. These peptide-protein conjugates were coated to polystyrene microtiter plates all at a concentration 10 micrograms peptide/ml and evaluated for immunoreactivity as described in Example 3, using a 1:101 dilution of a pool of sera (HIV+/SIV+, respectively) containing antibodies to HIV-1 (FIG. 1) or to HIV-2 (FIG. 5), as well as pooled serum (HIV-/SIV-, respectively) containing no antibodies to HIV-1 or HIV-2. […] Since sera from patients infected with HIV-2 are relatively unavailable in the United States, the immunoreactivity of HIV-2 synthetic peptides was assessed using serum from macaques infected with SIV, obtained from the University of Washington Primate Center, Seattle, Wash., U.S.A. The AA sequence of SIV is nearly identical to HIV-2 in the region of the peptides synthesized (see Myers et al., Human Retroviruses and AIDS, 1988. A compilation of nucleic acid and amino acid sequences. Los Alamos National Laboratory, Los Alamos, N. Mex., 87545, USA).

Another assay has as its system Antibodies to HIV-2. Briefly: Detection of seroconversion in macaques experimentally infected with SIV, EIA. In kind it is binding, macaque. On the procedure:
as §1
The immunoreactivity of the HIV-2 peptide BSA conjugates 2S24, (2S24 plus 5S86), and 5S92 was evaluated for detection of seroconversion in macaques using serial sera collected over a 16 week period from 7 macaques experimentally infected with SIV at week 0.

For another assay, the system named is antibodies to SIV/HIV-2. Briefly: EIA of peptide-protein conjugates coated on polystyrene microtiter plates, macaque sera. Conditions: for immunoreactivity with SIV/HIV-2 antibodies (FIG. 5): C-terminal BSA-SMCC conjugates, 10 micrograms peptide/ml coating, 1:101 dilution of pooled SIV+ / SIV- macaque sera; for discrimination of positive from negative macaque sera (FIG. 7): peptide-BSA conjugates. In kind it is binding, rhesus macaque (Macaca mulatta).
Text: For all of the immunoassays employing human serum, the serum samples were obtained from the King County Health Department, Seattle, Wash., U.S.A., and each serum had been characterized as positive or negative with respect to antibodies to HIV-1, as determined by testing with the commercially licensed Genetic Systems and or DuPont EIA tests. Serum from rhesus macaque monkeys (Macaca mulatta) was obtained from the University of Washington, Seattle, Wash., U.S.A., and had been characterized by a SIV whole virus lysate EIA as either containing or not containing antibodies to SIV which is nearly identical in sequence to HIV-2 in the region of the peptide epitopes studied.
as §1, §2

The mark [3] stands for this setting: BSA-SMCC conjugate, 85 individual sera without antibodies to HIV-1.
Where [4] appears, read: BSA-SMCC conjugate, 98 individual sera containing antibodies to HIV-1.

This note sets out measurements from patent publication US5260189A, “Synthetic HIV-like peptides their compositions and uses” (Immunodiagnostics, Inc., priority 1992, dated 1993).

“Also recorded” adds a separate entry of the source.

Regarding “ALGPAATLEEMMTACGC [5S94, HIV-1 p24 peptide with GC tail]”, in the assay with antibodies to HIV-1 [1] (setting [3]), the negative sera reacting was 0/85 and the “negative sera reacting, percent” value stood at 0%. Moreover, in the assay on antibodies to HIV-1 [1] (setting [4]), the positive sera immunoreactive is 17/98 and the “positive sera immunoreactive, percent” value is listed as 17%. In addition, the “immunoreactivity with serum pools (FIG. 8)” value in the assay on antibodies to HIV-1 [1] (BSA-SMCC conjugates, pool of approximately 50 HIV+ sera and approximately 30 HIV- sera) is given as “immunoreactive peptide; also recorded: significant immunoreactivity”.

In the case of AVERYLKDQQLLGC [2S01], the “immunoreactivity with HIV-1 antibodies (FIG. 1)” value (“immunoreactivity … (FIG. 1)” for short) in the assay on antibodies to HIV-1 [2] is on record as “significantly less immunoreactive”.

Regarding CSGKLICTTAVPWNAGC [3S51], the “immunoreactivity … (FIG. 1)” value with antibodies to HIV-1 [2] was “Significant immunoreactivity; also recorded: higher reactivity”.

For the sequence DQARLNSWGCAFRQVC [2S24], the “Reactivity by Peptide-BSA Conjugate (reactive macaques/7)” value with Antibodies to HIV-2 (Week 0 (SIV infection at week 0)) is 0/7; with Antibodies to HIV-2 (Week 1) it was 0/7; in the assay with Antibodies to HIV-2 (Week 2), 1/7; in the assay with Antibodies to HIV-2 (Week 3), 2/7; in the assay with Antibodies to HIV-2 (Week 4) it was 4/7; in the assay with Antibodies to HIV-2 (Week 6), 6/7. Also, the “Reactivity by Peptide-BSA Conjugate (reactive macaques/7)” value with Antibodies to HIV-2 (Week 8), with Antibodies to HIV-2 (Week 12) and in the assay with Antibodies to HIV-2 (Week 16) was 7/7 throughout. In addition, the “immunoreactivity with SIV/HIV-2 antibodies (FIG. 5)” value with antibodies to SIV/HIV-2 is given as “Significant immunoreactivity; also recorded: best immunoreactivity; also recorded: maximally immunoreactive”. For the same sequence, in the assay with antibodies to SIV/HIV-2, the “discrimination of positive from negative macaque sera (FIG. 7)” value (“discrimination of positive” below) is listed as “most favorable performances”.

Regarding ERYLKDQQLLGIWGC [2S02], the “immunoreactivity … (FIG. 1)” value in the assay with antibodies to HIV-1 [2] was “significantly less immunoreactive”.

Take GCSGKLICTTAVPWNGC [2S11]: in the assay on antibodies to HIV-1 [2], the “immunoreactivity … (FIG. 1)” value is given as “Significant immunoreactivity; also recorded: higher reactivity”.

As to GKLICTTAVPWNASWGC [3S55], the “immunoreactivity … (FIG. 1)” value in the assay with antibodies to HIV-1 [2] is “Significant immunoreactivity; also recorded: higher reactivity”.

“IKQLQARILAVERYLKDQQ [4S24, reference compound]”: the “immunoreactivity … (FIG. 1)” value in the assay with antibodies to HIV-1 [2] is recorded as “lower immunoreactivity”.

Regarding IWGCSGKLICTTAVPGC [2S09], the “immunoreactivity with individual positive sera (FIGS. 10B, 10C)” value in the assay with antibodies to HIV-1 [2] (BSA-SMCC conjugate, 98 HIV-1 antibody positive human sera) is listed as “some positive samples had very low immunoreactivity”. Besides, the “immunoreactivity … (FIG. 1)” value with antibodies to HIV-1 [2] was “Significant immunoreactivity; also recorded: slightly superior immunoreactivity; also recorded: maximally immunoreactive; also recorded: higher reactivity”.

With “IWGCSGKMICTTAVPGC [5S76, unnatural variant of HIV-1 gp41 peptide 2S09]”, the “number of positive samples giving A492 less than 1.0” value in the assay on antibodies to HIV-1 [2] (BSA-SMCC conjugate, 98 positive human sera (FIGS. 11A, 11B)) is “Five”.

Regarding KDQQLLGIWGCSGKLGC [2S04], the “immunoreactivity … (FIG. 1)” value in the assay with antibodies to HIV-1 [2] is reported as “Significant immunoreactivity”.

For the sequence KLICTTAVPWNASWSGC [2S15], the “immunoreactivity … (FIG. 1)” value in the assay with antibodies to HIV-1 [2] is “Significant immunoreactivity; also recorded: higher reactivity”.

Turning to LGIWGCSGKLICTTAGC [2S07], the “immunoreactivity … (FIG. 1)” value with antibodies to HIV-1 [2] is “Significant immunoreactivity”.

For the sequence LLGIWGCSGKLICTTGC [2S06], the “immunoreactivity … (FIG. 1)” value with antibodies to HIV-1 [2] is “Significant immunoreactivity”.

Turning to QQLLGIWGCSGKLICGC [3S36], the “immunoreactivity … (FIG. 1)” value in the assay with antibodies to HIV-1 [2] was “Significant immunoreactivity”.

As for “RILAVERYLKDQQLLGIWGCSGKLIC [4S25, reference compound]”, the “immunoreactivity … (FIG. 1)” value with antibodies to HIV-1 [2] is reported as “Significant immunoreactivity; also recorded: lower immunoreactivity; also recorded: lower or comparable immunoreactivity”.

Turning to SGKLICTTAVPWNASGC [2S13], the “immunoreactivity … (FIG. 1)” value in the assay with antibodies to HIV-1 [2] is “Significant immunoreactivity; also recorded: higher reactivity”.

Take “SWGCAFRQVCHTSVPGC [5S86, HIV-2/SIV natural peptide]”: the “discrimination of positive” value with antibodies to SIV/HIV-2 is listed as “most favorable performances”.

For SWGCAFRQVCHTTVPGC [2S27], in the assay on antibodies to SIV/HIV-2, the “immunoreactivity with SIV/HIV-2 antibodies (FIG. 5)” value was “Significant immunoreactivity; also recorded: best immunoreactivity; also recorded: maximally immunoreactive” and the “discrimination of positive” value is listed as “most favorable performances”.

With YLKDQQLLGIWGCSGC [2S03], the “immunoreactivity … (FIG. 1)” value with antibodies to HIV-1 [2] is on record as “significantly less immunoreactive”.
